From a flash point compilation (Sun et al. 2020) come the findings set out here.

The structures appear in SMILES notation.

Turning to `CC(=O)CC(C)C` [4-methylpentan-2-one], the flash point came out at 23.00 °C.

Regarding `CCCCCCCCc1ccc(O)cc1` [4-octylphenol], the flash point was found to be 113.00 °C.

`CCc1ccc(C)nc1` [5-ethyl-2-methylpyridine] showed a flash point of 68.00 °C.

`CCC1(c2ccccc2)C(=O)NC(=O)NC1=O` [5-ethyl-5-phenyl-1,3-diazinane-2,4,6-trione] registered a flash point of 174.00 °C.

`CC=C1CC2C=CC1C2` (stereo unspecified) [5-ethylidenebicyclo[2.2.1]hept-2-ene] gave a flash point of 26.00 °C.

For `Cc1cnc[nH]1` [5-methyl-1H-imidazole], the flash point amounted to 157.00 °C.

For the compound `CC(=O)CCC(C)C` [5-methylhexan-2-one], the flash point is 36.00 °C.

Regarding `C=CCc1ccc2c(c1)OCO2` [5-prop-2-enyl-1,3-benzodioxole], the flash point worked out at 98.00 °C.

Compound `C=C1CCC2CC1C2(C)C` (stereo unspecified) [6,6-dimethyl-2-methylidenebicyclo[3.1.1]heptane] returned a flash point of 31.00 °C.

`CCOc1ccc2c(c1)C(C)=CC(C)(C)N2` [6-ethoxy-2,2,4-trimethyl-1H-quinoline] returned a flash point of 107.00 °C.

Turning to `CC1=C(C(=O)Nc2ccccc2)SCCO1` [6-methyl-N-phenyl-2,3-dihydro-1,4-oxathiine-5-carboxamide], the flash point was 203.00 °C.

In turn, `Cc1ccc2oc(=O)ccc2c1` [6-methylchromen-2-one] had a flash point of 130.00 °C.

In the case of `CC(C)CCCCCOC(=O)COc1cc(Cl)c(Cl)cc1Cl` [6-methylheptyl 2-(2,4,5-trichlorophenoxy)acetate], the flash point was found to be 69.00 °C.

`Cc1c2ccccc2c(C)c2c1ccc1ccccc12` [7,12-dimethylbenzo[a]anthracene] had a flash point of 86.00 °C.

On to `Cc1ccc2cccnc2c1` [7-methylquinoline], for which the flash point amounted to 110.00 °C.

For `C=C(C)C(=O)OCCCCCCCC(C)C` [8-methylnonyl 2-methylprop-2-enoate], the flash point turned out to be 121.00 °C.

Regarding `Cc1cccc2cccnc12` [8-methylquinoline], the flash point was 105.00 °C.

For the compound `C1=C\CCCC\C=C/1` [(1Z,3Z)-cycloocta-1,3-diene], the flash point was 35.00 °C.

As to `CC1(C)OCC(CO)O1` (stereo unspecified) [(2,2-dimethyl-1,3-dioxolan-4-yl)methanol], the flash point turned out to be 80.00 °C.

Consider `C=CC(=O)OCC(C)(C)COC(=O)C=C` [(2,2-dimethyl-3-prop-2-enoyloxypropyl) prop-2-enoate], for which the flash point is 115.00 °C.

For the compound `CCCCCCCC(=O)Oc1c(Br)cc(C#N)cc1Br` [(2,6-dibromo-4-cyanophenyl) octanoate], the flash point was 102.00 °C.

`CC(C)(C)c1ccccc1OP(=O)(Oc1ccccc1)Oc1ccccc1` [(2-tert-butylphenyl) diphenyl phosphate] showed a flash point of 224.00 °C.

Turning to `C1O[C@H]1[C@H]1CO1` [(2R)-2-[(2R)-oxiran-2-yl]oxirane], the flash point was found to be 46.00 °C.

`OC[C@@H](O)[C@@H](O)[C@H](O)[C@@H](O)CO` [(2R,3R,4R,5S)-hexane-1,2,3,4,5,6-hexol] came in with a flash point of 283.00 °C.

In the case of `CC(C)=CCC/C(C)=C\CO` [(2Z)-3,7-dimethylocta-2,6-dien-1-ol], the flash point came to 107.00 °C.

On to `CC(C)C(=O)OCC(C)(C)C(O)C(C)C` (stereo unspecified) [(3-hydroxy-2,2,4-trimethylpentyl) 2-methylpropanoate], for which the flash point was 120.00 °C.

In turn, `CN(C)C(=O)/N=N/C(=O)N(C)C` [(3E)-3-(dimethylcarbamoylimino)-1,1-dimethylurea] yielded a flash point of 40.00 °C.

For `C=C/C=C/C` [(3E)-penta-1,3-diene], the flash point is -29.00 °C.

In turn, `CC1CCC(CO)CC1` (stereo unspecified) [(4-methylcyclohexyl)methanol] had a flash point of 112.00 °C.

With `C=C(C)[C@H]1CC=C(C)CC1` [(4R)-1-methyl-4-prop-1-en-2-ylcyclohexene], the flash point was 48.00 °C.

`O=C/C=C/c1ccccc1` [(E)-3-phenylprop-2-enal]: the flash point amounted to 71.00 °C.

In turn, `O=C(O)/C=C/C(=O)O` [(E)-but-2-enedioic acid] gave a flash point of 273.00 °C.

`NC(=O)/N=N/C(N)=O` [(E)-carbamoyliminourea] came in with a flash point of 96.00 °C.

`CCCCCCCC/C=C\CCCCCCCC(=O)O` [(Z)-octadec-9-enoic acid] yielded a flash point of 189.00 °C.

For `CSSC` [(methyldisulfanyl)methane], the flash point was found to be 24.00 °C.

The compound `C1=CCC=C1` [InChI=1S/C5H6/c1-2-4-5-3-1/h1-4H,5H2] showed a flash point of 25.00 °C.

With `NCCNCCN` [N'-(2-aminoethyl)ethane-1,2-diamine], the flash point amounted to 102.00 °C.

Regarding `CNCCCN` [N'-methylpropane-1,3-diamine], the flash point was 36.00 °C.

On to `Cc1ccccc1N(C)C` [N,N,2-trimethylaniline], for which the flash point stood at 83.00 °C.

With `CN(C)CCN(C)C` [N,N,N',N'-tetramethylethane-1,2-diamine], the flash point came out at 10.00 °C.

`C=CCN(CC=C)CC=C` [N,N-bis(prop-2-enyl)prop-2-en-1-amine]: the flash point came out at 39.00 °C.

On to `CCCCN(CCCC)CCCC` [N,N-dibutylbutan-1-amine], for which the flash point turned out to be 85.00 °C.

In the case of `CCN(CC)C(C)=O` [N,N-diethylacetamide], the flash point turned out to be 77.00 °C.

Take `CCN(CC)N=O` [N,N-diethylnitrous amide]: the flash point was 63.00 °C.

`CN(C)Cc1ccccc1` [N,N-dimethyl-1-phenylmethanamine]: the flash point was 57.00 °C.

`CN(C)C1CCCCC1` [N,N-dimethylcyclohexanamine] gave a flash point of 42.00 °C.

In turn, `CN(C)N=O` [N,N-dimethylnitrous amide] yielded a flash point of 61.00 °C.

In turn, `CCCCCN(CCCCC)CCCCC` [N,N-dipentylpentan-1-amine] had a flash point of 102.00 °C.

For `CCCN(CCC)CCC` [N,N-dipropylpropan-1-amine], the flash point was 37.00 °C.

`CC(=O)CC(=O)Nc1ccc(C)cc1C` [N-(2,4-dimethylphenyl)-3-oxobutanamide] returned a flash point of 171.00 °C.

In turn, `CCCCOCN(C(=O)CCl)c1c(CC)cccc1CC` [N-(butoxymethyl)-2-chloro-N-(2,6-diethylphenyl)acetamide] showed a flash point of 114.00 °C.

On to `CCCCN(CC)N=O` [N-butyl-N-ethylnitrous amide], for which the flash point came to 93.00 °C.

For the compound `CCCCN(C)N=O` [N-butyl-N-methylnitrous amide], the flash point is 32.00 °C.

`CCCCNC1CCCCC1` [N-butylcyclohexanamine]: the flash point stood at 93.00 °C.

The compound `O=[N+]([O-])N(Cl)c1ccccc1` [N-chloro-N-phenylnitramide] yielded a flash point of 205.00 °C.

For the compound `CCNc1ccccc1` [N-ethylaniline], the flash point worked out at 85.00 °C.

As for `CCCCNCC` [N-ethylbutan-1-amine], the flash point amounted to 18.00 °C.

On to `CCNC1CCCCC1` [N-ethylcyclohexanamine], for which the flash point stood at 29.00 °C.

Compound `CNC(C)Cc1ccccc1` (stereo unspecified) [N-methyl-1-phenylpropan-2-amine] displayed a flash point of 9.00 °C.

The compound `CNC(C)=O` [N-methylacetamide] had a flash point of 108.00 °C.

On to `CNc1ccccc1` [N-methylaniline], for which the flash point turned out to be 79.00 °C.

The compound `CCCCCNCCCCC` [N-pentylpentan-1-amine] showed a flash point of 51.00 °C.

Regarding `c1ccc(Nc2ccccc2)cc1` [N-phenylaniline], the flash point was 153.00 °C.

Consider `CC(C)Nc1ccccc1` [N-propan-2-ylaniline], for which the flash point came to 88.00 °C.

For `CCSC(=O)N(CC(C)C)CC(C)C` [S-ethyl N,N-bis(2-methylpropyl)carbamothioate], the flash point stood at 116.00 °C.

Consider `CCCN(CCC)C(=O)SCC` [S-ethyl N,N-dipropylcarbamothioate], for which the flash point is 116.00 °C.

On to `CCSC(=O)N1CCCCCC1` [S-ethyl azepane-1-carbothioate], for which the flash point was determined as 139.00 °C.

For the compound `CCCCN(CC)C(=O)SCCC` [S-propyl N-butyl-N-ethylcarbamothioate], the flash point amounted to 51.00 °C.

`CCSCc1ccccc1OC(=O)NC` [[2-(ethylsulfanylmethyl)phenyl] N-methylcarbamate] returned a flash point of 123.00 °C.

`NCc1cccc(CN)c1` [[3-(aminomethyl)phenyl]methanamine] returned a flash point of 117.00 °C.

In turn, `COC(=O)Nc1cccc(OC(=O)Nc2cccc(C)c2)c1` [[3-(methoxycarbonylamino)phenyl] N-(3-methylphenyl)carbamate] had a flash point of 74.00 °C.

Compound `OCC1CCC(CO)CC1.OCC1CCC(CO)CC1` (stereo unspecified) [[4-(hydroxymethyl)cyclohexyl]methanol] registered a flash point of 166.00 °C.

For the compound `Br/C=C/c1ccccc1` [[(E)-2-bromoethenyl]benzene], the flash point was found to be 79.00 °C.

In turn, `CCC[CH2][Sn]([CH2]CCC)([O]C(C)=O)[O]C(C)=O` [[acetyloxy(dibutyl)stannyl] acetate] showed a flash point of 143.00 °C.

Turning to `CCCCCCCCCCCC(=O)[O][Sn]([CH2]CCC)([CH2]CCC)[O]C(=O)CCCCCCCCCCC` [[dibutyl(dodecanoyloxy)stannyl] dodecanoate], the flash point came to 235.00 °C.

Turning to `C1=Cc2cccc3cccc1c23` [acenaphthylene], the flash point was found to be 122.00 °C.

Take `CC=O` [acetaldehyde]: the flash point is -40.00 °C.

`CC(=O)O` [acetic acid] gave a flash point of 40.00 °C.

For the compound `CC(=O)OCN=[N+](C)[O-]` [acetyloxymethylimino-methyl-oxidoazanium], the flash point was 99.00 °C.

In turn, `Cl.Nc1ccccc1` [aniline;hydrochloride] had a flash point of 193.00 °C.

Compound `O=C1c2ccccc2C(=O)c2ccccc21` [anthracene-9,10-dione] displayed a flash point of 185.00 °C.
